Tested on: Endogenous Huntingtin Protein
Assay: Endogenous Huntingtin Protein Assay (ELISA-based MSD electrochemiluminescence)
Type: cell-based
Method: Compounds of Formula (I) were tested using the Meso Scale Discovery (MSD) Assay provided in International Application No. PCT/US2016/066042, filed on Dec. 11, 2016 and claiming priority to U.S. Provisional Application 62/265,652 filed on Dec. 10, 2015, the entire contents of which are incorporated herein by reference.
The Endogenous Huntingtin Protein assay used in Biological Example 1 was developed using the ELISA-based MSD electrochemiluminescence assay platform.
Meso Scale Discovery (MSD) 96-well or 384-well plates were coated overnight at 4° C. with MW1 (expanded polyglutamine) or MAB2166 monoclonal antibody (for capture) at a concentration of 1 μg/mL in PBS (30 μL per well). Plates were then washed three times with 300 μL wash buffer (0.05% Tween-20 in PBS) and blocked (100 μL blocking buffer; 5% BSA in PBS) for 4-5 hours at room temperature with rotational shaking and then washed three times with wash buffer.
Samples (25 μL) were transferred to the antibody-coated MSD plate and incubated overnight at 4° C. After removal of the lysates, the plate was washed three times with wash buffer, and 25 μL of #56565 (Cell signaling; rabbit monoclonal) secondary antibody (diluted to 0.25 μg/mL in 0.05% Tween-20 in blocking buffer) was added to each well and incubated with shaking for 1 Hour at room temperature. Following incubation with the secondary antibody, the wells were rinsed with wash buffer after which 25 μL of goat anti-rabbit SULFO TAG secondary detection antibody (required aspect of the MSD system) (diluted to 0.25 μg/mL in 0.05% Tween-20 in blocking buffer) was added to each well and incubated with shaking for 1 hour at room temperature. After rinsing three times with wash buffer, 150 μL of read buffer T with surfactant (MSD) were added to each empty well, and the plate was imaged on a SI 6000 imager (MSD) according to manufacturers' instructions provided for 96- or 384-well plates.

[1] = Table 2, MSD plates coated with MW1 (expanded polyglutamine) or MAB2166 capture antibody, "inactive" = result above the detection limit of the assay

SMILES	IC50 [1] [µM]	IC50 (Table 3, selected compounds from WO/2019/191229 A1, same MSD assay) [µM]
Cc1nc2nc(-c3ccc(-c4cnc(N5CCN[C@@H](C6CC6)C5)nn4)c(O)c3)nc(C)c2[nH]1 [Cpd 84, 2-{3-[(3S)-3-cyclopropylpiperazin-1-yl]-1,2,4-triazin-6-yl]-5-(6,8-dimethyl-7H-purin-2-yl)phenol]	0.0059	–
Cn1nnc2ccc(-c3ccc(-c4cnc(N5CCN[C@@H](C6CC6)C5)nn4)c(O)c3)nc21 [Cpd 173, 2-{3-[(3S)-3-cyclopropylpiperazin-1-yl]-1,2,4-triazin-6-yl}-5-(3-methyl-3H-[1,2,3]triazolo[4,5-b]pyridin-5-yl)phenol]	0.0213	–
[2H]C([2H])([2H])Oc1cc(-c2ccc(-c3cnc(N4CCN[C@@H](C(C)C)C4)nn3)c(O)c2)ncn1 [Cpd 10, 5-{6-[(^2H3)methyloxy]pyrimidin-4-yl}-2-{3-[(3S)-3-(propan-2-yl)piperazin-1-yl]-1,2,4-triazin-6-yl}phenol]	0.0095	–
[2H]C([2H])([2H])n1cc(-c2ccc(-c3cnc(N4CCN[C@@H](C5CC5)C4)nn3)c(O)c2)cn1 [Cpd 9, 2-{3-[(3S)-3-cyclopropylpiperazin-1-yl]-1,2,4-triazin-6-yl}-5-[1-(^2H3)methyl-1H-pyrazol-4-yl]phenol]	0.0095	–
Cn1cc2cc(-c3ccc(-c4cnc(N5CCNC(CO)C5)nn4)c(O)c3)cc(F)c2n1 (stereo not shown) [Cpd 65, 5-(7-fluoro-2-methyl-2H-indazol-5-yl)-2-{3-[3-(hydroxymethyl)piperazin-1-yl]-1,2,4-triazin-6-yl}phenol]	0.0016	–
CCC[C@H]1CN(c2ncc(-c3ccc(-c4cn[nH]c4)cc3O)nn2)CCN1 [Cpd 37, 2-{3-[(3S)-3-propylpiperazin-1-yl]-1,2,4-triazin-6-yl}-5-(1H-pyrazol-4-yl)phenol]	0.0507	–
CC(C)(O)C1CN(c2ncc(-c3ccc(-c4cn[nH]c4)cc3O)nn2)CCN1 (stereo not shown) [Cpd 13, 2-{3-[3-(2-hydroxypropan-2-yl)piperazin-1-yl]-1,2,4-triazin-6-yl}-5-(1H-pyrazol-4-yl)phenol]	0.0114	–
Cc1cc(-c2cn[nH]c2)cc(O)c1-c1cnc(N2CCN[C@@H](C(C)C)C2)nn1 [Cpd 127, 3-methyl-2-{3-[(3S)-3-(propan-2-yl)piperazin-1-yl]-1,2,4-triazin-6-yl}-5-(1H-pyrazol-4-yl)phenol]	0.672	–
CN1CCN(c2ncc(-c3ccc(-c4cn[nH]c4)cc3O)nn2)CC1C1COC1 (stereo not shown) [Cpd 187, 2-{3-[4-methyl-3-(oxetan-3-yl)piperazin-1-yl]-1,2,4-triazin-6-yl}-5-(1H-pyrazol-4-yl)phenol]	0.401	–
Cc1nc2c(C)cc(-c3ccc(-c4cnc(N5C[C@@H](C)N[C@@H](C)C5)nn4)c(O)c3)nn2n1 [Cpd 83, 2-{3-[(3R,5S)-3,5-dimethylpiperazin-1-yl]-1,2,4-triazin-6-yl}-5-(2,8-dimethyl[1,2,4]triazolo[1,5-b]pyridazin-6-yl)phenol]	0.0056	–
CC[C@H]1CN(c2ncc(-c3ccc(-c4ncns4)cc3O)nn2)C[C@@H](C)N1 (single isomer, unassigned) [Cpd 267, 2-{3-[(3S,5R)-3-ethyl-5-methylpiperazin-1-yl]-1,2,4-triazin-6-yl}-5-(1,2,4-thiadiazol-5-yl)phenol or 2-{3-[(3R,5S)-3-ethyl-5-methylpiperazin-1-yl]-1,2,4-triazin-6-yl}-5-(1,2,4-thiadiazol-5-yl)phenol]	0.145	–
CC[C@H]1CN(c2ncc(-c3ccc(-c4c[nH]nc4F)cc3O)nn2)CCN1 [Cpd 123, 2-{3-[(3S)-3-ethylpiperazin-1-yl]-1,2,4-triazin-6-yl}-5-(3-fluoro-1H-pyrazol-4-yl)phenol]	0.0112	–
Oc1cc(-c2cn3ncnc3cn2)ccc1-c1cnc(N2CCN[C@@H](C3CC3)C2)nn1 [Cpd 130, 2-{3-[(3S)-3-cyclopropylpiperazin-1-yl]-1,2,4-triazin-6-yl}-5-([1,2,4]triazolo[1,5-a]pyrazin-6-yl)phenol]	0.012	–
CC(C)[C@H]1CN(c2ncc(-c3ccc(-c4nc(C(F)F)cs4)cc3O)nn2)CCN1 [Cpd 186, 5-[4-(difluoromethyl)-1,3-thiazol-2-yl]-2-{3-[(3S)-3-(propan-2-yl)piperazin-1-yl]-1,2,4-triazin-6-yl}phenol]	0.0777	–
Oc1cc(-c2c[nH]nc2F)ccc1-c1cnc(N2CCNC3(CC3)C2)nn1 [Cpd 57, 2-[3-(4,7-diazaspiro[2.5]octan-7-yl)-1,2,4-triazin-6-yl]-5-(3-fluoro-1H-pyrazol-4-yl)phenol]	0.668	–
Oc1cc(-n2nccn2)ccc1-c1cnc(N2CCN3CCC[C@H]3C2)nn1 [Cpd 153, 2-{3-[(8aS)-hexahydropyrrolo[1,2-a]pyrazin-2(1H)-yl]-1,2,4-triazin-6-yl}-5-(2H-1,2,3-triazol-2-yl)phenol]	0.438	–
C=CC1CN(c2ncc(-c3ccc(-c4cn[nH]c4)cc3O)nn2)CCN1 (stereo not shown) [Cpd 38, 2-[3-(3-ethenylpiperazin-1-yl)-1,2,4-triazin-6-yl]-5-(1H-pyrazol-4-yl)phenol]	0.0562	–
[2H]C([2H])([2H])n1cc(-c2ccc(-c3cnc(N4CCNC(C(C)C)C4)nn3)c(O)c2)cn1 (stereo not shown) [Cpd 41, 5-[1-(^2H3)methyl-1H-pyrazol-4-yl]-2-{3-[3-(propan-2-yl)piperazin-1-yl]-1,2,4-triazin-6-yl}phenol]	0.11	–
CC(C)(C)[C@H]1CN(c2ncc(-c3cc(F)c(-c4cn[nH]c4)cc3O)nn2)CCN1 [Cpd 164, 2-{3-[(3S)-3-tert-butylpiperazin-1-yl]-1,2,4-triazin-6-yl}-4-fluoro-5-(1H-pyrazol-4-yl)phenol]	0.004	–
Oc1cc(-c2cn[nH]c2)ccc1-c1cnc(N2CCNC3(CCCC3)C2)nn1 [Cpd 43, 2-[3-(6,9-diazaspiro[4.5]decan-9-yl)-1,2,4-triazin-6-yl]-5-(1H-pyrazol-4-yl)phenol]	0.116	–

Next, values leading:

IC50 [1] [µM]	IC50 (Table 3, selected compounds from WO/2019/191229 A1, same MSD assay) [µM]	SMILES
0.0337	–	Cc1nnn2cc(-c3ccc(-c4cnc(N5C[C@@H](C)N[C@@H](C)C5)nn4)c(O)c3)ccc12 [Cpd 206, 2-{3-[rac-(3R,5S)-3,5-dimethylpiperazin-1-yl]-1,2,4-triazin-6-yl}-5-(3-methyl[1,2,3]triazolo[1,5-a]pyridin-6-yl)phenol]
0.0111	–	C[C@@H]1CN(c2ncc(-c3ccc(-c4ccc5nn(C)nc5n4)cc3O)nn2)C[C@H](C)N1 [Cpd 201, 2-{3-[rac-(3R,5S)-3,5-dimethylpiperazin-1-yl]-1,2,4-triazin-6-yl}-5-(2-methyl-2H-[1,2,3]triazolo[4,5-b]pyridin-5-yl)phenol]
0.291	–	Cc1nc2n(n1)CCN(c1ccc(-c3cnc(N4CCN[C@@H](C(C)C)C4)nn3)c(O)c1)C2 [Cpd 274, 5-(2-methyl-5,6-dihydro[1,2,4]triazolo[1,5-a]pyrazin-7(8H)-yl)-2-{3-[(3S)-3-(propan-2-yl)piperazin-1-yl]-1,2,4-triazin-6-yl}phenol]
0.13	–	COc1cc(-c2ccc(-c3cnc(N4C[C@@H](C5CC5)N[C@@H](C)C4)nn3)c(O)c2)ncn1 [Cpd 226, 2-{3-[(3R,5S)-3-cyclopropyl-5-methylpiperazin-1-yl]-1,2,4-triazin-6-yl}-5-(6-methoxypyrimidin-4-yl)phenol]
0.0073	–	CC(C)[C@H]1CN(c2ncc(-c3c(O)cc(-c4cn[nH]c4F)cc3F)nn2)CCN1 [Cpd 283, 3-fluoro-5-(5-fluoro-1H-pyrazol-4-yl)-2-{3-[(3S)-3-(propan-2-yl)piperazin-1-yl]-1,2,4-triazin-6-yl}phenol]
0.0301	–	COc1csc(-c2ccc(-c3cnc(N4CCN[C@@H](C(C)C)C4)nn3)c(O)c2)n1 [Cpd 200, 5-(4-methoxy-1,3-thiazol-2-yl)-2-{3-[(3S)-3-(propan-2-yl)piperazin-1-yl]-1,2,4-triazin-6-yl}phenol]
–	0.0914	Oc1cc(-c2cn[nH]c2)ccc1-c1cnc(N2CCN3CCC[C@H]3C2)nn1 [WO/2019/191229 A1 Cpd 116, reference compound]
0.0749	–	C[C@@H]1CN(c2ncc(-c3ccc(-c4c[nH]nc4F)cc3O)nn2)C[C@H](C(C)(C)C)N1 [Cpd 248, 2-{3-[(3S,5R)-3-tert-butyl-5-methylpiperazin-1-yl]-1,2,4-triazin-6-yl]-5-(3-fluoro-1H-pyrazol-4-yl)phenol]
0.0177	–	Oc1cc(-c2ncco2)ccc1-c1cnc(N2CCN[C@@H](C3CC3)C2)nn1 [Cpd 233, 2-{3-[(3S)-3-cyclopropylpiperazin-1-yl]-1,2,4-triazin-6-yl}-5-(1,3-oxazol-2-yl)phenol]
0.0124	–	COc1cc(-c2ccc(-c3cnc(N4C[C@@H](C)N[C@@H](C5CC5)C4)nn3)c(O)c2)ccn1 [Cpd 256, 2-{3-[(3S,5R)-3-cyclopropyl-5-methylpiperazin-1-yl]-1,2,4-triazin-6-yl}-5-(2-methoxypyridin-4-yl)phenol]
0.526	–	CC(C)[C@H]1CN(c2ncc(-c3ccc(-c4nnc(C5CC5)o4)cc3O)nn2)CCN1 [Cpd 199, 5-(5-cyclopropyl-1,3,4-oxadiazol-2-yl)-2-{3-[(3S)-3-(propan-2-yl)piperazin-1-yl]-1,2,4-triazin-6-yl}phenol]

From patent US20230234942A1, “COMPOUNDS FOR TREATING HUNTINGTON'S DISEASE” (PTC Therapeutics, Inc., priority 2020, published 2023)
